These results are taken from patent US12145923B2, “Tetrahydroisoquinoline compound, preparation method therefor, pharmaceutical composition containing same, and use thereof” (SHANGHAI INSTITUTE OF MATERIA MEDICA, CHINESE ACADEMY OF …, priority 2018, dated 2024).

The target of one test is Human PDE4D catalytic domain (Homo sapiens (Human), UniProt Q08499). Briefly: Scintillation Proximity Assay (SPA), inhibition of PDE4D catalytic domain activity. The note with it: Compound concentration: 1 μM; read-out: PDE4D enzyme activity inhibition rate %. The class given is biochemical.
Sequence of Human PDE4D catalytic domain (Q08499 386-715): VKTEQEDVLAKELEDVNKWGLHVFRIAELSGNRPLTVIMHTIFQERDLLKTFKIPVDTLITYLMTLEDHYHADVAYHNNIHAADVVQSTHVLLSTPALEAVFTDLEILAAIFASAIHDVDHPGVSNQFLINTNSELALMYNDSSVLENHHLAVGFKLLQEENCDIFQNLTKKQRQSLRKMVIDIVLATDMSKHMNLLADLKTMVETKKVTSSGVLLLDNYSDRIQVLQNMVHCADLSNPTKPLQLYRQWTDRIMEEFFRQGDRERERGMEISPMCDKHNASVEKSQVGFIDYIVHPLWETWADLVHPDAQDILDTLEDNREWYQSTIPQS
Description: The scintillation Proximity Assay (SPA) method was used to determine the inhibitory effect of compounds on the activity of PDE4D catalytic domain. Human PDE4D catalytic domain protein was obtained by expression and purification in E. coli. […] [^3H]-cAMP, scintillation beads (RPNQO150, Perkin Elmer), and 96-well scintillation microplates (Isoplate-96, Perkin Elmer) were purchased from Perkin Elmer Company.
Finally, 10 μl [^3H]-cAMP (0.005 μCi/μl) was added and incubated for 30 min at 30° C. in a water bath. 50 μl SPA beads was added to quench the reaction, shaked appropriately, and stood for 20 minutes. A microplate scintillation counter was used.
Consider `CCOc1cc2c(cc1OC)CCN(S(=O)(=O)c1cccc(F)c1)[C@H]2CCc1c[nH]c2ccc(OC)cc12` [(S)-C50, (S)-7-ethoxy-6-methoxy-1-(2-(5-methoxy-1H-indol-3-yl)ethyl)-2-(3-fluorophenyl)sulfonyl-1,2,3,4-tetrahydroisoquinoline], for which the inhibition at 1 µM was 49.4%.
On the same count and under the same terms, for `CCOc1cc2c(cc1OC)CCN(S(=O)(=O)c1ccc(F)c(F)c1)[C@H]2CCc1c[nH]c2ccc(OC)cc12` [(S)-C51, (S)-7-ethoxy-6-methoxy-1-(2-(5-methoxy-1H-indol-3-yl)ethyl)-2-(3,4-difluorophenyl)sulfonyl-1,2,3,4-tetrahydroisoquinoline] the value was 37.9%; for `CCOc1cc2c(cc1OC)CCN(S(=O)(=O)c1ccc(F)cc1F)[C@H]2CCc1c[nH]c2ccc(OC)cc12` [(S)-C52, (S)-7-ethoxy-6-methoxy-1-(2-(5-methoxy-1H-indol-3-yl)ethyl)-2-(2,4-difluorophenyl)sulfonyl-1,2,3,4-tetrahydroisoquinoline], 36.8%.
With `CCOc1cc2c(cc1OC)CCN(S(=O)(=O)CC)[C@H]2CCc1c[nH]c2ccc(OC)cc12` [(S)-C53, (S)-7-ethoxy-6-methoxy-1-(2-(5-methoxy-1H-indol-3-yl)ethyl)-2-ethylsulfonyl-1,2,3,4-tetrahydroisoquinoline], the inhibition at 1 µM amounted to 56.3%.
The same measure, in the same setting: for `CCOc1cc2c(cc1OC)CCN(C(=O)C(F)(F)F)[C@H]2CCc1c[nH]c2ccc(OC)cc12` [(S)-C54, (S)-7-ethoxy-1-(2-(5-methoxy-1H-indol-3-yl)ethyl)-6-methoxy-3,4-dihydroisoquinoline-2(1H)-trifluoroethane-1-one] the value was 46%; for `CCOc1cc2c(cc1OC)CCN(S(=O)(=O)c1cccnc1)[C@H]2CCc1c[nH]c2ccc(OC)cc12` [(S)-C55], 20.5%.
With `CCOc1cc2c(cc1OC)CCN(S(=O)(=O)c1ccc(Br)c(F)c1)[C@H]2CCc1c[nH]c2ccc(OC)cc12` [(S)-C56, (S)-7-ethoxy-6-methoxy-1-(2-(5-methoxy-1H-indol-3-yl)ethyl)-2-(3-fluoro-4-bromophenyl) sulfonyl-1,2,3,4-tetrahydroisoquinoline], the inhibition at 1 µM was 66.4%.
On the same count and under the same terms, for `CCOc1cc2c(cc1OC)CCN(S(=O)(=O)c1ccccc1F)[C@H]2CCc1c[nH]c2ccc(OC)cc12` [(S)-C57, (S)-7-ethoxy-6-methoxy-1-(2-(5-methoxy-1H-indol-3-yl)ethyl)-2-(2-fluorophenyl)sulfonyl-1,2,3,4-tetrahydroisoquinoline] the value was 66.5%; for `CCOc1cc2c(cc1OC)CCN(S(=O)(=O)c1ccc(F)cc1)[C@H]2CCc1c[nH]c2ccc(OC)cc12` [(S)-C58, (S)-7-ethoxy-6-methoxy-1-(2-(5-methoxy-1H-indol-3-yl)ethyl)-2-(4-fluorophenyl)sulfonyl-1,2,3,4-tetrahydroisoquinoline], 49.7%.
Same read-out and setting: next, `CCOc1cc2c(cc1OC)CCN(C(=O)C(F)F)[C@H]2CCc1c[nH]c2ccc(OC)cc12` [(S)-C59, (S)-7-ethoxy-1-(2-(5-methoxy-1H-indol-3-yl)ethyl)-6-methoxy-3,4-dihydroisoquinolin-2(1H)-2,2-difluoroethane-1-one]: 42.4%.
For the compound `CCOc1cc2c(cc1OC)CCN(S(=O)(=O)c1ccc(OC)cc1)[C@H]2CCc1c[nH]c2ccc(OC)cc12` [(S)-C60, (S)-7-ethoxy-6-methoxy-1-(2-(5-methoxy-1H-indol-3-yl)ethyl)-2-(4-methoxyphenyl)sulfonyl-1,2,3,4-tetrahydroisoquinoline], the inhibition at 1 µM is 42%.
The same measure, in the same setting: next, `COc1cc2c(cc1OC)[C@H](CCc1csc3ccccc13)N(C=O)CC2` [(S)-C61, (S)-1-(2-(benzo[b]thiothiophen-3-yl)ethyl)-6,7-dimethoxy-3,4-dihydroisoquinoline-2(1H)-formaldehyde]: 70.8%; `CCOc1cc2c(cc1OC)CCN(C=O)[C@H]2CCc1c[nH]c2ccc(C#N)cc12` [(S)-C65, (S)-7-ethoxy-6-methoxy-1-(2-(5-cyano-1H-indol-3-yl)ethyl)-3,4-dihydroisoquinoline-2(1H)-formaldehyde]: 68.7%; `COc1ccc2[nH]cc(CC[C@H]3c4cc(C(=O)O)c(OC)cc4CCN3C=O)c2c1` [(S)-C68, (S)-2-formyl-6-methoxy-1-(2-(5-methoxy-1H-indol-3-yl)ethyl)-1,2,3,4-tetrahydroisoquinoline-7-carboxylic acid]: 83.1%.
The same measure, in the same setting: next, `CNC(=O)c1cc2c(cc1OC)CCN(C=O)[C@H]2CCc1c[nH]c2ccc(OC)cc12` [(S)-C69, (S)-2-formyl-6-methoxy-1-(2-(5-methoxy-1H-indol-3-yl)ethyl)-N-methyl-1,2,3,4-tetrahydroisoquinoline-7-carboxamide]: 80.5%.
Same read-out and setting: for `COc1ccc2[nH]cc(CC[C@H]3c4cc(C(N)=O)c(OC)cc4CCN3C=O)c2c1` [(S)-C70, (S)-2-formyl-6-methoxy-1-(2-(5-methoxy-1H-indol-3-yl)ethyl)-1,2,3,4-tetrahydroisoquinoline-7-carboxamide] the value was 83.8%; for `CCOc1cc2c(cc1OC)CCN(C=O)[C@H]2CCc1c[nH]c2ccc(OC(F)(F)F)cc12` [(S)-C76, (S)-7-ethoxy-6-methoxy-1-(2-(5-trifluoromethoxy-1H-indol-3-yl)ethyl)-3,4-dihydroisoquinoline-2(1H)-formaldehyde], 92.3%.
Turning to `CCOc1cc2c(cc1OC)CCN(C=O)[C@H]2CCc1c[nH]c2ccc(OC(F)F)cc12` [(S)-C77, (S)-7-ethoxy-6-methoxy-1-(2-(5-difluoromethoxy-1H-indol-3-yl)ethyl)-3,4-dihydroisoquinoline-2(1H)-formaldehyde], the inhibition at 1 µM amounted to 93.5%.

The same test, now with this note: read-out: PDE4D enzyme activity inhibition rate %.
Consider `COc1ccc2[nH]cc(CC[C@H]3c4cc(OC(F)(F)F)c(OC)cc4CCN3C=O)c2c1` [(S)-C63, (S)-7-trifluoromethoxy-1-(2-(5-methoxy-1H-indol-3-yl)ethyl)-6-methoxy-3,4-dihydroisoquinoline-2(1H)-formaldehyde], for which the inhibition at 1 µM turned out to be 75.3%.
`COc1ccc2[nH]cc(CC[C@H]3c4cc(OC(F)F)c(OC)cc4CCN3C=O)c2c1` [(S)-C64, (S)-7-difluoromethoxy-1-(2-(5-methoxy-1H-indol-3-yl)ethyl)-6-methoxy-3,4-dihydroisoquinoline-2(1H)-formaldehyde]: the inhibition at 1 µM came to 76.5%.
Consider `COC(=O)c1cc2c(cc1OC)CCN(C=O)[C@H]2CCc1c[nH]c2ccc(OC)cc12` [(S)-C66, methyl-(S)-2-formyl-6-methoxy-1-(2-(5-methoxy-1H-indol-3-yl)ethyl)-1,2,3,4-tetrahydroisoquinoline-7-carboxylate], for which the inhibition at 1 µM was found to be 88.4%.
Still for that read-out and setting: for `COC(=O)c1cc2c(cc1OC)[C@H](CCc1c[nH]c3ccc(OC)cc13)N(C=O)CC2` [(S)-C67, methyl-(S)-2-formyl-7-methoxy-1-(2-(5-methoxy-1H-indol-3-yl)ethyl)-1,2,3,4-tetrahydroisoquinoline-6-carboxylate] the value was 85.9%; for `COc1ccc2[nH]cc(CC[C@H]3c4cc(C(F)F)c(OC)cc4CCN3C=O)c2c1` [(S)-C71, (S)-7-difluoromethyl-1-(2-(5-methoxy-1H-indol-3-yl)ethyl)-6-methoxy-3,4-dihydroisoquinoline-2(1H)-formaldehyde], 81.8%.
